According to a melting point compilation (Tetko et al.; mined from patent text by program, amines drawn as free bases though some values may be those of a salt):

Point of comparison: `COc1ccc(C=CC(=O)N2CCc3c([nH]c4ccccc34)C2c2ccc3c(c2)OCO3)cc1O` (stereo unspecified), melting point 213 °C. Against it:
- CCN(CC)CCn1c2c(c3ccccc31)CCS(=O)(=O)CCC2 — lower, 118 to 120 °C
- CCOC(=O)c1cnc2c(O)cccc2c1 — lower, 118 °C
- O=C1Cn2cccc2Sc2ccc(Cl)cc21 — lower, 106 to 107 °C
- O[C@@H]1CN(CC2CC2)CC[C@@H]1c1ccccc1 (relative stereo) — lower, 94 to 97 °C
- Cc1cccc(-c2n[nH]cc2-c2ccc(F)c(-c3ccc(N4CCN(C)CC4)nc3)c2)n1 — lower, 86 °C
- COc1ccc(CNc2ccc(C#N)cc2)cc1OC — lower, 150 °C
- CC(=O)NC1Cc2ccc(C(=O)CCCCCl)cc2C1 (stereo unspecified) — lower, 106 to 108 °C
- O=C(O)CCC(=O)c1ccc(SCCCBr)cc1 — lower, 91 to 94 °C
- CCOC(=O)c1sc(Oc2ccc(NC(=O)OC(C)(C)C)cc2)c2c1CCc1cnn(C)c1-2 — lower, 186 to 187 °C
- COc1ccccc1N1CCN(C(=O)OC(C)(C)C)CC1 — lower, 70 to 71 °C
- COc1ccc(Cc2nnsc2-c2cccs2)cc1 — lower, 72.2 to 73.3 °C
- COc1ccc(-n2cc(C(=O)O)c(=O)c3cc(F)c(F)cc32)cc1 — higher, 256 to 258 °C
- COc1cc(C2CCN(C(=O)C(C)(C)N)CC2)ccc1Nc1ncc2ccc(-c3ccccc3N(C)S(C)(=O)=O)n2n1 — lower, 92 to 100 °C
- COC(=O)c1cccc(Oc2cccc(-c3nn(Cc4ccc(C(F)(F)P(=O)(O)O)c(F)c4)c(=Nc4ccc(Cl)c(Cl)c4)s3)c2)c1 — lower, 137 to 139 °C
- COC(=O)C=Cc1cc(O)c(O)c([N+](=O)[O-])c1 — lower, 186 to 187 °C
- ClCC1CCN(C(c2ccccc2)c2ccccc2)CC1 — lower, 73 to 75 °C
- CNC(=O)c1ccc(-c2cnc3[nH]c(=O)n(CC4CCCCC4)c3n2)cc1 — higher, 273 to 275 °C
- CCc1nc(Cc2ccc([N+](=O)[O-])cc2)no1 — lower, 69 to 70 °C
- CCCCOc1c(CNC(=O)OC(C)(C)C)n(CC(C)C)c(=O)c2ccc(/C=C/c3cscn3)cc12 — lower, 141 to 142 °C
- COC(=O)C(=C(CBr)CBr)N1CC(N2C(=O)c3ccccc3C2=O)C1=O (stereo unspecified) — lower, 128 to 131 °C
- Cc1oc(-c2ccc3ccccc3c2)nc1COc1ccc(COc2ncccc2C#N)cc1 — lower, 145 to 146 °C
- COC(=O)c1cn(-c2cc(C(=O)OC)c(N)cc2C(F)(F)F)cn1 — lower, 206 to 208 °C
- NCCc1ccc(N)cn1 — lower, 42 to 45 °C
- OCCCC(=C(c1ccccc1)c1ccccc1)c1ccccc1 — lower, 128 to 130 °C
- COc1ccc2c(=O)c(C(N)=O)c(N)oc2c1 — higher, 265 to 266 °C
- Cc1cc(-c2ccccc2)nc(-c2cccc([N+](=O)[O-])c2)c1C(=O)O — lower, 191 to 192 °C
- Cc1c(NC(=O)c2ccc(OCc3ccc(C(F)(F)F)cc3)cc2)ccc2cc(CN3CCCC3)cnc12 — lower, 196 to 197 °C
- COc1ccc(C(Cl)C(C)(C)[N+](=O)[O-])cc1 (stereo unspecified) — lower, 40 to 41 °C
- Clc1ccc(-c2n[nH]c3cc4ccccc4cc23)cc1 — lower, 192 °C
- CP(=O)(CCC(=O)O)CCC(=O)O — lower, 172 to 174 °C
- O=c1ccc2cnc(Nc3ccccc3)nc2n1CCCOc1ccccc1 — lower, 175 to 176 °C
- Cc1cccc(-c2nc3ccccn3c2-c2ccnc(-c3ccc(N4CCOCC4)cc3)c2)n1 — lower, 190 °C
- CCCCCCOc1ccc2nc(-c3ccc(COC(CCCCCC)C(F)(F)F)cc3)sc2c1 (stereo unspecified) — lower, 69.1 °C
- COc1cc2c(c3c1OC(C)(C)C3)C(c1cccc(NC(=O)c3ccc(CP(=O)(O)O)cc3)c1)=NC(C)(C)C2 — higher, 237 to 241 °C
- O=C(Nc1nccs1)c1nc(-c2cccc3ccccc23)[nH]c1-c1ccc([N+](=O)[O-])cc1 — higher, 237 to 238 °C
- N#Cc1cnn(-c2c(Cl)cc(Cl)cc2Cl)c1N — lower, 208 to 210 °C
- CCC(=O)OC[C@H]1O[C@@H]2[C@@H](Sc3ccc(Cl)cc3N2CCN(CC)CC)[C@@H](OC(=O)CC)[C@@H]1OC(=O)CC — lower, 125 to 127 °C
- Cc1c(-c2ccccc2)[nH]c2ccc(Br)cc12 — lower, 138 to 140 °C
- c1ccc(-c2ccc(-c3nc4n(n3)Cc3ccccc3-4)cc2)cc1 — higher, 231 °C
- CC(C)(C)N(N=O)C1CCCCC1 — lower, 87 °C
- O=C(NCC(=O)N1CCCC1)c1ccc(-c2ccc3nnn(Cc4ccc5ncccc5c4)c3n2)cc1F — lower, 175 to 177 °C
- FC(F)(F)c1csc(I)n1 — lower, 35.5 to 36 °C
- CNC(=O)c1ccccc1Nc1nc(Nc2ccc3c(c2)CCN(C(=O)C(F)(F)F)CC3)ncc1Cl — lower, 192 to 194 °C
- [N-]=[N+]=C1C(=O)Oc2ccc(S(=O)(=O)Cl)cc2C1=O — lower, 185 °C
- Nc1ncc(CCCCc2ccc(Cl)cc2)c(N)n1 — lower, 159 to 162 °C
- CC12CCC(=O)C=C1CCC1C2CCC2(C)C(n3ccnc3)=CCC12 (stereo unspecified) — lower, 147 to 150 °C
- CCOC(=O)c1ccc(Nc2c(NCc3ccccc3)cc(C(=O)OCC)cc2S(N)(=O)=O)cc1 — lower, 161 °C
- CCOC(=O)c1cn2c3c(c(Br)c(F)cc3c1=O)OCC2C (stereo unspecified) — higher, > 250 °C
- C=CCN(CC)C(=O)n1cnc(S(=O)(=O)CC)n1 — lower, 39 to 41.5 °C
- CN(C)C(=O)Nc1ccc(SCCc2ccccc2)c(Cl)c1 — lower, 133 to 134 °C
- CCOC(=O)C1CCC(=O)NC1=O (stereo unspecified) — lower, 69 to 74 °C
- CC(O)/C=C/c1ccc(-c2ccccc2)cc1 (stereo unspecified) — lower, 138 to 139 °C
- CC(C)C=CC1(C(F)(F)F)OCC(=O)Nc2ccc(F)c(F)c21 (stereo unspecified) — lower, 159 to 160 °C
- CCC(C)c1nn(-c2ccc(C(F)(F)F)cn2)cc1CCCOc1c(C)cccc1CC(=O)O (stereo unspecified) — lower, 134 to 135 °C
- Cc1noc(C2C(=O)Nc3cc(Cl)ccc3C2=O)n1 (stereo unspecified) — higher, > 320 °C
- CC(C)(C)NC(=O)c1ccc(-c2ccc3nnn(Cc4ccc5ncccc5c4)c3n2)cc1F — lower, 210 to 212 °C
- COCCOc1ccc(CCCC(=O)O)c(Oc2ncc(C(F)(F)F)cc2Cl)c1 — lower, 119 to 120 °C
- CCOC(=O)c1ccc(OCCC2CCN(c3ccc(C)nn3)CC2)cc1 — lower, 130 °C
- CC(=O)NC(C)(C)c1ccc(CN2CCN(c3ccccn3)CC2)cc1 — lower, 129 to 130 °C
- Cc1cccc(C2=C(c3cn(C)c4ccccc34)C(=O)NC2=O)c1 — higher, 243 °C
- Cc1cccc2c1nc(COc1ccc(Cl)cc1)n2CCC(C)C(=O)NNCc1ccccc1 (racemic) — lower, 145 to 146 °C
- CN1CCc2nc3ccc(Cl)cc3c(Oc3ccccc3)c2C1 — lower, 182 to 184 °C
- CCOc1cc(Cc2cnc(N)nc2N)cc(OCC)c1C(C)=O — higher, 229 to 231 °C
- CCOC(=S)NC1(N=NC(C)(C)C)CCCCC1 — lower, 57 to 62 °C
- CSCCCn1cc(C(=O)NCc2ccc(Cl)cc2)c(=O)c2cc(CN3CCOCC3)ccc21 — lower, 102 to 104 °C
- CC1(C)NC(=O)C(C)(C)N1O — higher, 240 to 245 °C
- COc1ccc(-c2cccc(Cn3cncn3)c2)cc1Cl — lower, 78.2 to 78.4 °C
- O=C(c1ccccc1)c1ccc2nc3c(C(=O)O)cccc3nc2c1 — higher, 236 to 237 °C
- COc1ccc([C@H]2c3[nH]c4ccccc4c3C[C@H]3C(=O)N(CCc4ccccn4)C(=O)N23)cc1 (relative stereo) — lower, 140 to 143 °C
- Oc1c(Br)c(Br)c(F)c(Br)c1Br — lower, 178 to 180 °C
- N#Cc1ccc2c(c1)nc(N)n2CCC(=O)O — higher, > 320 °C
- COc1ccc(CN2C(=O)c3c(-c4ccccc4Cl)cc4c(c3C2=O)c2cc(OC)ccc2n4CCC(O)CO)c(OC)c1 (stereo unspecified) — lower, 126 to 131 °C
- CC(=O)Nc1ccc(S(=O)(=O)Nc2cscn2)cc1 — higher, 231 to 232 °C
- CSc1ccc(-n2c(-c3ccccc3)nc(SC)c(C#N)c2=O)cc1 — lower, 204 to 205 °C
- Cc1c(C(=O)O)cccc1-n1c(C)ccc1C — lower, 142 to 143 °C
- CNc1ccc(C#Cc2cncc(-c3nc(NC)nc4cc(OC)c(OC)cc34)c2)cn1 — lower, 160 to 162 °C
- CN1c2ccccc2-c2nc3ccc(/C=C/C(N)=O)cc3c3cccc1c23 — higher, 284 to 286 °C
- O=C(Nc1ccccc1)Nc1ccccn1 — lower, 186 to 188 °C
- Clc1ccnc(-n2ccnc2)n1 — lower, 138 to 139 °C
- CCc1ccc(Nc2c(F)c(F)cc(F)c2F)c(CC(=O)OC(C)(C)C(=O)O)c1 — lower, 104 to 108 °C
- CCOCC1N=NC(=S)N1C (stereo unspecified) — lower, 137 to 138 °C
- CCOc1ncc(I)cc1C(N)=O — lower, 176 to 179 °C
- Cc1c(C#N)cc(C(C)(C)C)c(O)c1C(=O)Nc1ccc(Sc2ccc(Cl)cc2)cc1C(F)(F)F — lower, 193 to 195 °C
- Cc1cc(=O)n(Cc2ccccc2)[nH]c1=O — not separable, > 200 °C
- CC1=C(c2ccccc2)n2nc(C)c(C(N)=O)c2NC1 — lower, 208 to 210 °C
- Cc1nc(-n2cnn(Cc3ccc(C(F)(F)F)o3)c2=O)sc1C(=O)NCc1cccnc1 — lower, 124 to 125 °C
- Cc1nc(Cl)c(SC(F)F)n1-c1c(Cl)cc(C(F)(F)F)cc1Cl — lower, 118 °C
- O=C(O)CCCc1nc(-c2cccnc2)c(-c2ccccc2)s1 — lower, 141 to 142 °C
- O=c1c2cc(F)ccc2nc(NCc2ccccc2F)n1-c1ccccc1Cl — lower, 163 to 165 °C
- C[C@H](NC(=O)c1c(N)cccc1F)C(=O)O — lower, 194 to 198 °C
- CC(=O)N[C@H](CF)CCC(=O)O — lower, 80 to 83 °C
- CCCCCCCC(=O)c1ccc(CCC(CC)(CCOC(C)=O)NC(C)=O)cc1 (stereo unspecified) — lower, 66 to 69 °C
- CCOc1cc(COc2nn(Cc3ccccc3)cc2C=O)ccc1OCc1nc(-c2ccco2)oc1C — lower, 144 to 145 °C
- Cc1nn(-c2ccccn2)c2[nH]c3ccc(C(F)(F)F)cc3c(=O)c12 — higher, 250 to 251 °C
- COc1cc(C(=O)OCC2(N(C)C)CCCc3sccc32)cc(OC)c1OC (stereo unspecified) — lower, 82 to 83 °C
- CC(NC=O)c1ccc(Nc2nccc(-c3cccnc3)n2)cc1 (stereo unspecified) — lower, 118 to 121 °C
- CN1CCC[C@H]1COc1ccc(/C=C/C(=O)O)cc1 — higher, 251 °C
- CCOC(=O)c1[nH]c2c(c1OCC1CO1)CCCC2 (stereo unspecified) — lower, 102 to 104 °C
- Cc1cc(-c2ccc(Cl)c(Cl)c2)nc(-c2ccnc(-c3cccc(S(N)(=O)=O)c3)c2)n1 — lower, 202 °C
- N#Cc1ccc([C@@H]2[C@@H]3C(=O)N(CC4CCCCC4)C(=O)[C@@H]3[C@H]3CCCN32)cc1 (racemic) — lower, 119 to 122 °C
